Measurements: patent EP4745137A1 (Gluetacs Therapeutics (Shanghai) Co., Ltd., priority 2023, dated 2025)

Key:
[1] = biological target: T1, WEE1 (Homo sapiens, UniProt P30291+Q96SW2); test: Western-blot assay of substrate protein degradation in hPBMCs, WEE1; assay type: cell-based; conditions: 24 hours of compound treatment, compounds tested at 50 nM and 500 nM (concentration of the table not stated)
T1 construct: endogenous in cells; host or cells: hPBMCs (Milecell Biotechnologies)

[2] = biological target: T2, IKZF1 (Homo sapiens, UniProt Q13422+Q96SW2); test: Western-blot assay of substrate protein degradation in hPBMCs, IKZF1; assay type: cell-based; conditions: 24 hours of compound treatment, compounds tested at 50 nM and 500 nM (concentration of the table not stated)
T2 construct: endogenous in cells; host or cells: hPBMCs (Milecell Biotechnologies)

[3] = biological target: T3, IKZF2 (Homo sapiens, UniProt Q96SW2+Q9UKS7); test: Western-blot assay of substrate protein degradation in hPBMCs, IKZF2; assay type: cell-based; conditions: 24 hours of compound treatment, compounds tested at 50 nM and 500 nM (concentration of the table not stated)
T3 construct: endogenous in cells; host or cells: hPBMCs (Milecell Biotechnologies)

[4] = biological target: T4, IKZF3 (Homo sapiens, UniProt Q96SW2+Q9UKT9); test: Western-blot assay of substrate protein degradation in hPBMCs, IKZF3; assay type: cell-based; conditions: 24 hours of compound treatment, compounds tested at 50 nM and 500 nM (concentration of the table not stated)
T4 construct: endogenous in cells; host or cells: hPBMCs (Milecell Biotechnologies)

[5] = biological target: T5, CK1α (Homo sapiens, UniProt P48729+Q96SW2); test: Western-blot assay of substrate protein degradation in hPBMCs, CK1α; assay type: cell-based; conditions: 24 hours of compound treatment, compounds tested at 50 nM and 500 nM (concentration of the table not stated)
T5 construct: endogenous in cells; host or cells: hPBMCs (Milecell Biotechnologies)

[6] = biological target: T6, GSPT1 (Homo sapiens, UniProt P15170+Q96SW2); test: Western-blot assay of substrate protein degradation in hPBMCs, GSPT1; assay type: cell-based; conditions: 24 hours of compound treatment, compounds tested at 50 nM and 500 nM (concentration of the table not stated)
T6 construct: endogenous in cells; host or cells: hPBMCs (Milecell Biotechnologies)

[7] = biological target: T7, human Cereblon WT GST-tagged protein (Homo sapiens, UniProt Q96SW2); test: CRBN-binding affinity by HTRF (CEREBLON BINDING kit); conditions: HTRF inhibitory activity, CEREBLON BINDING kit; read-out: HTRF IC50
T7 construct: purchased CISBIO 64BDCRBNPEH
T7 sequence (Q96SW2 whole entry): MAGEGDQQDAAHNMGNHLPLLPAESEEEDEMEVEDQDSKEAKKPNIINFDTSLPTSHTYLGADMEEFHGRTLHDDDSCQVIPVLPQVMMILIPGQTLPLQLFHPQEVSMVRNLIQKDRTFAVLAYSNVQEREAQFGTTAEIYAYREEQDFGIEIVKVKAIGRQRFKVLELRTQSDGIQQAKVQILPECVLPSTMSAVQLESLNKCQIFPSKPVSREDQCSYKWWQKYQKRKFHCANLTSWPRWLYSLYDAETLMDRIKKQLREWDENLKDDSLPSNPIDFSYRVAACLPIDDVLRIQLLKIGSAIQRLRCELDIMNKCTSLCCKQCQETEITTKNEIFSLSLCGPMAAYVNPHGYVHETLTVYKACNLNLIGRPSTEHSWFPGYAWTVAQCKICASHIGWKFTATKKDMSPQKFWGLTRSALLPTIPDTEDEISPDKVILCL

T5 sequence (P48729 whole entry): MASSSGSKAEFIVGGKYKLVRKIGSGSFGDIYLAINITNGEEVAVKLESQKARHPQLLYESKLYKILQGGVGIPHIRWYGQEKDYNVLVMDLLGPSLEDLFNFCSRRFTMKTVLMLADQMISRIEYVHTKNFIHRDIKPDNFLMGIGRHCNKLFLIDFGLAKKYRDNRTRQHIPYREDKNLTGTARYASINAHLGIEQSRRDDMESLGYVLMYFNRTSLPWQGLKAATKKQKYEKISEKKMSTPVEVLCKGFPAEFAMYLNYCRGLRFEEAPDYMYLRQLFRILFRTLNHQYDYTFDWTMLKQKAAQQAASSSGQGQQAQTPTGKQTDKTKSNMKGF
T5 sequence (Q96SW2 whole entry): as the sequence (Q96SW2 whole entry) above
T5 sequence (Q16531 whole entry partner): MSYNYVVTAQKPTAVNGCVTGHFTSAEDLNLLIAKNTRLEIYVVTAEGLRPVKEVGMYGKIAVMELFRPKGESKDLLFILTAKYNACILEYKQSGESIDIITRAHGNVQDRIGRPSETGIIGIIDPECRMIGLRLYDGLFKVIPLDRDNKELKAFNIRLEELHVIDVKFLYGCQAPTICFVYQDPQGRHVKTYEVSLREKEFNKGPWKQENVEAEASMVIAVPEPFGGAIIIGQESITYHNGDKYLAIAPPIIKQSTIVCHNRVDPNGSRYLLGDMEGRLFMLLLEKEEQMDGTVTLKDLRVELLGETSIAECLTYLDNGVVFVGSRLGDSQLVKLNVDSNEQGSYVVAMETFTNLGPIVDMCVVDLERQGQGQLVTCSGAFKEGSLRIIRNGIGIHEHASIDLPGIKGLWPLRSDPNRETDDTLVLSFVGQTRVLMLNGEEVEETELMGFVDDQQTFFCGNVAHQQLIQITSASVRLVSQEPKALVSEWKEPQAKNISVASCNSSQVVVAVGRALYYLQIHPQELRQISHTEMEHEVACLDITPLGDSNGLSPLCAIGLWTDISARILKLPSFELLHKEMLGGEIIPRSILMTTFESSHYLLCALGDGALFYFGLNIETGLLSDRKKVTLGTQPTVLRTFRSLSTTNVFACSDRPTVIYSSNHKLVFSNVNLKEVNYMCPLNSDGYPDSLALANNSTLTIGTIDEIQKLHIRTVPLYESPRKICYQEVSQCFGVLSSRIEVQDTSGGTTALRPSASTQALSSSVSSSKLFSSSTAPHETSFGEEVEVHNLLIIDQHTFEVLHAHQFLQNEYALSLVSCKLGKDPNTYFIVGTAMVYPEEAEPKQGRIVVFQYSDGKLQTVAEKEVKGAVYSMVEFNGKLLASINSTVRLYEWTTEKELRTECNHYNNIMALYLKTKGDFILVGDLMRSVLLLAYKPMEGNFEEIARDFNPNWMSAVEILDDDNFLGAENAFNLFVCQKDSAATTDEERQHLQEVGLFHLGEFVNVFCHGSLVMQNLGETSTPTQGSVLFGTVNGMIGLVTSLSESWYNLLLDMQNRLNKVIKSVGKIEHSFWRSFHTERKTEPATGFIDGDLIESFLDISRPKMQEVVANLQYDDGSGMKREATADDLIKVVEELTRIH
T6 sequence (P15170 whole entry): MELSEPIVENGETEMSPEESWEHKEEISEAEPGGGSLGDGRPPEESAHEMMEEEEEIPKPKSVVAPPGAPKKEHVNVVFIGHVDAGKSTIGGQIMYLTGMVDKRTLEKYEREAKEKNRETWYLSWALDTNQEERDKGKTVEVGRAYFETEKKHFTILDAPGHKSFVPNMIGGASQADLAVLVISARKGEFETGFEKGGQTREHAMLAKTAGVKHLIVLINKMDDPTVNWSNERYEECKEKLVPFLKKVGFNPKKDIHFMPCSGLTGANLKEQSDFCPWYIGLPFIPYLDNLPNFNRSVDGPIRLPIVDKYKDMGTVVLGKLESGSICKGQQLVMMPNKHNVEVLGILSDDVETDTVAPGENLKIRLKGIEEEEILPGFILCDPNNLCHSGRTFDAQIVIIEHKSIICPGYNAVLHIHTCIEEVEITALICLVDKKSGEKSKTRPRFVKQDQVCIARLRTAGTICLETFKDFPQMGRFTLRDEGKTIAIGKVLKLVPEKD
T6 sequence (Q96SW2 whole entry): as the sequence (Q96SW2 whole entry) above
T6 sequence (Q16531 whole entry partner): as the sequence (Q16531 whole entry partner) above
T3 sequence (Q9UKS7 whole entry): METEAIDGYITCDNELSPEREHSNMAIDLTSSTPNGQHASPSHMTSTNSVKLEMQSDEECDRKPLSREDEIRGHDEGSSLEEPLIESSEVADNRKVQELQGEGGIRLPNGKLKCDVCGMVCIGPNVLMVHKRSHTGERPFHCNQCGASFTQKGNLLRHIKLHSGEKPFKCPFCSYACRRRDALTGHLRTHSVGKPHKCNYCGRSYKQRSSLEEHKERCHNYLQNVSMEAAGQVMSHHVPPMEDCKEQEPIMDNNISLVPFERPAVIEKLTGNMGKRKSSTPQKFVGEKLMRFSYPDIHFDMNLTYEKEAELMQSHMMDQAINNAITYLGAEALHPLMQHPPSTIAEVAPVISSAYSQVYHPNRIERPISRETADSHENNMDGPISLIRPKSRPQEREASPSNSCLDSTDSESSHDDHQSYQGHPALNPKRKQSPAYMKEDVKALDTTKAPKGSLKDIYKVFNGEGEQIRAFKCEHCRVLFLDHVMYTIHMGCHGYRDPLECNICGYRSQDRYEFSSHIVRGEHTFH
T3 sequence (Q96SW2 whole entry): as the sequence (Q96SW2 whole entry) above
T3 sequence (Q16531 whole entry partner): as the sequence (Q16531 whole entry partner) above
T1 sequence (P30291 whole entry): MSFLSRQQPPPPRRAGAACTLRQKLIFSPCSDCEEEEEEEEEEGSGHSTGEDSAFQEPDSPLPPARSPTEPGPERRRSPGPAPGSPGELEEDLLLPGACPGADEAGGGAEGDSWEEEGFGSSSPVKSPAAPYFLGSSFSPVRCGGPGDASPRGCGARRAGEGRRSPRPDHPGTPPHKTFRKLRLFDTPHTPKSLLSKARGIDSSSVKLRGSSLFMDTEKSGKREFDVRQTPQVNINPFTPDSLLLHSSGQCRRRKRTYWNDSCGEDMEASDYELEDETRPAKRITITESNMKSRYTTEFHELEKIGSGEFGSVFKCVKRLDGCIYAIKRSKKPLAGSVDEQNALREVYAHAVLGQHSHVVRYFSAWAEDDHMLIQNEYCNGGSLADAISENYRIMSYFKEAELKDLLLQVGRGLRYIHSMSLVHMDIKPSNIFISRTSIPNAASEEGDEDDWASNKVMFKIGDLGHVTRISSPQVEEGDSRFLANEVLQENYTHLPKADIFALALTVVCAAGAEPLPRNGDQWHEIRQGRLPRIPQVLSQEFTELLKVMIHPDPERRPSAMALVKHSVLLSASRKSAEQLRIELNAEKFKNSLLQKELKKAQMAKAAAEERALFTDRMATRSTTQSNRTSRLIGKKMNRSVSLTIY
T1 sequence (Q96SW2 whole entry): as the sequence (Q96SW2 whole entry) above
T1 sequence (Q16531 whole entry partner): as the sequence (Q16531 whole entry partner) above
T2 sequence (Q13422 whole entry): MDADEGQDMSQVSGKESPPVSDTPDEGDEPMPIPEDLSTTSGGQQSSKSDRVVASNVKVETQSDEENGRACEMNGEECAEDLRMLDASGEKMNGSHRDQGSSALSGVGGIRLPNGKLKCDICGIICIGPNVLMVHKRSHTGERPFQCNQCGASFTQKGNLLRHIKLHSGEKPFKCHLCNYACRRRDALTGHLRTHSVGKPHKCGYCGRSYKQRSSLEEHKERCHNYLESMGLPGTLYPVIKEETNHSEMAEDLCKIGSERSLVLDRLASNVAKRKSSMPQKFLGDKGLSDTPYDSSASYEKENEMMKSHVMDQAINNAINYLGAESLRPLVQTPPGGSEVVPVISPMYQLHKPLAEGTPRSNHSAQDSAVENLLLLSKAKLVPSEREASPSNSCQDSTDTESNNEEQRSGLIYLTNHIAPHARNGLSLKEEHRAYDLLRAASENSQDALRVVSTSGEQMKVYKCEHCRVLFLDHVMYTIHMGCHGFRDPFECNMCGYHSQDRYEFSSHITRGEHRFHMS
T2 sequence (Q96SW2 whole entry): as the sequence (Q96SW2 whole entry) above
T2 sequence (Q16531 whole entry partner): as the sequence (Q16531 whole entry partner) above

Compound	Weel substrate protein remaining % [1]	IKZF 1 substrate protein remaining % [2]	IKZF2 substrate protein remaining % [3]	IKZF3 substrate protein remaining % [4]	CK1a substrate protein remaining % [5]	GSPT1 substrate protein remaining % [6]	IC50 [7] [nM]
Cc1cc(N2CCN(Cc3ccc4c(c3)CN(C3CCC(=O)NC3=O)C4=O)CC2)cc(C)n1 (centres unmarked) [GT-04492, 3-(5-((4-(2,6-dimethylpyridin-4-yl)piperazin-1-yl)methyl)-1-oxoisoindolin-2-yl)piperidine-2,6-dione]	B (80%< substrate protein remaining %≤ 100%)	B (80%< substrate protein remaining %≤ 100%)	B (80%< substrate protein remaining %≤ 100%)	B (80%< substrate protein remaining %≤ 100%)	A (0% ≤ substrate protein remaining % ≤ 80%)	A (0% ≤ substrate protein remaining % ≤ 80%)	500 to 1000
O=C1CCC(N2Cc3cc(CN4CCN(c5c(F)c(F)nc(F)c5F)CC4)ccc3C2=O)C(=O)N1 (centres unmarked) [GT-04499, 3-(1-oxo-5-((4-(perfluoropyridin-4-yl)piperazin-1-yl)methyl)isoindolin-2-yl)piperidine-2,6-dione]	A (0% ≤ substrate protein remaining % ≤ 80%)	A (0% ≤ substrate protein remaining % ≤ 80%)	A (0% ≤ substrate protein remaining % ≤ 80%)	A (0% ≤ substrate protein remaining % ≤ 80%)	A (0% ≤ substrate protein remaining % ≤ 80%)	A (0% ≤ substrate protein remaining % ≤ 80%)	500 to 1000
O=C1CCC(N2Cc3cc(CN4CCN(c5cc(Cl)nnc5Cl)CC4)ccc3C2=O)C(=O)N1 (centres unmarked) [GT-04500, 3-(5-((4-(3,6-dichloropyridazin-4-yl)piperazin-1-yl)methyl)-1-oxoisoindolin-2-yl)piperidine-2,6-dione]	A (0% ≤ substrate protein remaining % ≤ 80%)	A (0% ≤ substrate protein remaining % ≤ 80%)	A (0% ≤ substrate protein remaining % ≤ 80%)	A (0% ≤ substrate protein remaining % ≤ 80%)	A (0% ≤ substrate protein remaining % ≤ 80%)	A (0% ≤ substrate protein remaining % ≤ 80%)	500 to 1000
O=C1CCC(N2Cc3cc(CN4CCN(c5ncnc(Cl)c5Cl)CC4)ccc3C2=O)C(=O)N1 (centres unmarked) [GT-04501, 3-(5-((4-(5,6-dichloropyrimidin-4-yl)piperazin-1-yl)methyl)-1-oxoisoindolin-2-yl)piperidine-2,6-dione]	A (0% ≤ substrate protein remaining % ≤ 80%)	A (0% ≤ substrate protein remaining % ≤ 80%)	A (0% ≤ substrate protein remaining % ≤ 80%)	A (0% ≤ substrate protein remaining % ≤ 80%)	A (0% ≤ substrate protein remaining % ≤ 80%)	A (0% ≤ substrate protein remaining % ≤ 80%)	< 500
O=C1CCC(N2Cc3cc(CN4CCN(c5cccnc5)CC4)ccc3C2=O)C(=O)N1 (centres unmarked) [GT-04508, 3-(1-oxo-5-((4-(pyridin-3-yl)piperazin-1-yl)methyl)isoindolin-2-yl)piperidine-2,6-dione]	A (0% ≤ substrate protein remaining % ≤ 80%)	A (0% ≤ substrate protein remaining % ≤ 80%)	A (0% ≤ substrate protein remaining % ≤ 80%)	A (0% ≤ substrate protein remaining % ≤ 80%)	B (80%< substrate protein remaining %≤ 100%)	A (0% ≤ substrate protein remaining % ≤ 80%)	500 to 1000
O=C1CCC(N2Cc3c(CN4CCN(c5cccc(Cl)c5Cl)CC4)cccc3C2=O)C(=O)N1 (centres unmarked) [GT-04528, 3-(4-((4-(2,3-dichlorophenyl)piperazin-1-yl)methyl)-1-oxoisoindolin-2-yl)piperidine-2,6-dione]	A (0% ≤ substrate protein remaining % ≤ 80%)	B (80%< substrate protein remaining %≤ 100%)	B (80%< substrate protein remaining %≤ 100%)	B (80%< substrate protein remaining %≤ 100%)	B (80%< substrate protein remaining %≤ 100%)	B (80%< substrate protein remaining %≤ 100%)	500 to 1000
O=C1CCC(N2Cc3cc(CN4CCN(c5ccc(Cl)nc5)CC4)ccc3C2=O)C(=O)N1 (centres unmarked) [GT-04537, 3-(5-((4-(6-chloropyridin-3-yl)piperazin-1-yl)methyl)-1-oxoisoindolin-2-yl)piperidine-2,6-dione]	A (0% ≤ substrate protein remaining % ≤ 80%)	A (0% ≤ substrate protein remaining % ≤ 80%)	A (0% ≤ substrate protein remaining % ≤ 80%)	A (0% ≤ substrate protein remaining % ≤ 80%)	A (0% ≤ substrate protein remaining % ≤ 80%)	A (0% ≤ substrate protein remaining % ≤ 80%)	500 to 1000
Cc1cc(N2CCN(Cc3ccc4c(c3)CN(C3CCC(=O)NC3=O)C4=O)CC2)ccn1 (centres unmarked) [GT-04541, 3-(5-((4-(2-methylpyridin-4-yl)piperazin-1-yl)methyl)-1-oxoisoindolin-2-yl)piperidine-2,6-dione]	A (0% ≤ substrate protein remaining % ≤ 80%)	A (0% ≤ substrate protein remaining % ≤ 80%)	A (0% ≤ substrate protein remaining % ≤ 80%)	A (0% ≤ substrate protein remaining % ≤ 80%)	B (80%< substrate protein remaining %≤ 100%)	B (80%< substrate protein remaining %≤ 100%)	500 to 1000
O=C1CCC(N2Cc3cc(CN4CCN(c5ccnc(Cl)c5Cl)CC4)ccc3C2=O)C(=O)N1 (centres unmarked) [GT-04542, 3-(5-((4-(2,3-dichloropyridin-4-yl)piperazin-1-yl)methyl)-1-oxoisoindolin-2-yl)piperidine-2,6-dione]	A (0% ≤ substrate protein remaining % ≤ 80%)	A (0% ≤ substrate protein remaining % ≤ 80%)	A (0% ≤ substrate protein remaining % ≤ 80%)	A (0% ≤ substrate protein remaining % ≤ 80%)	B (80%< substrate protein remaining %≤ 100%)	A (0% ≤ substrate protein remaining % ≤ 80%)	< 500
O=C1CCC(N2Cc3cc(CN4CCN(c5ccnc(F)c5F)CC4)ccc3C2=O)C(=O)N1 (centres unmarked) [GT-04543, 3-(5-((4-(2,3-difluoropyridin-4-yl)piperazin-1-yl)methyl)-1-oxoisoindolin-2-yl)piperidine-2,6-dione]	A (0% ≤ substrate protein remaining % ≤ 80%)	A (0% ≤ substrate protein remaining % ≤ 80%)	A (0% ≤ substrate protein remaining % ≤ 80%)	A (0% ≤ substrate protein remaining % ≤ 80%)	B (80%< substrate protein remaining %≤ 100%)	A (0% ≤ substrate protein remaining % ≤ 80%)	500 to 1000
O=C1CCC(N2Cc3cc(CN4CCC(c5ccnc(F)c5F)CC4)ccc3C2=O)C(=O)N1 (centres unmarked) [GT-04556, 3-(5-((4-(2,3-difluoropyridin-4-yl)piperidin-1-yl)methyl)-1-oxoisoindolin-2-yl)piperidine-2,6-dione]	A (0% ≤ substrate protein remaining % ≤ 80%)	A (0% ≤ substrate protein remaining % ≤ 80%)	A (0% ≤ substrate protein remaining % ≤ 80%)	A (0% ≤ substrate protein remaining % ≤ 80%)	A (0% ≤ substrate protein remaining % ≤ 80%)	A (0% ≤ substrate protein remaining % ≤ 80%)	500 to 1000
